A word on the IC50: it is the midpoint of a concentration-inhibition curve.

A short description of data set [1]: Cytotoxicity (CC50) determined in parallel in uninfected cells (β-actin toxicity). The settings on record: human.
Data set [2] deals with human norovirus (HuNoV). The experiment in a line: Inhibition of in vitro replication of genogroup 1 NoV in HG23 NoV replicon cells (qRT-PCR of intracellular RNA). The data set is classed as cell-based. The note with it: for inhibitory activity against human norovirus (in words): HuNoV assay. (In general: In antiviral work, replicon cells carry a viral genome segment that copies itself.)

Data set [3] deals with HuNoV. The settings on record: human B cell BJAB cell line; read-out: EC50 HuNoV replication; cited from earlier work.
For data set [4], the system named is murine norovirus (MNV). The note with it: read-out: EC50 murine norovirus (MNV) polymerase; cited from earlier work.
The test system of data set [5] is HCV. The note with it: read-out: EC50 HCV in cell cultures; cited from earlier work.
Data set [6] concerns HCV. The settings on record: anti-HCV in vitro; cited from earlier work.
Data set [7] has as its system dengue virus (DENV2). The note with it: read-out: IC50 dengue virus (DENV2) replication; cited from earlier work.
For data set [8], the system named is poliovirus (PV). The settings on record: read-out: IC50 poliovirus (PV) replication; cited from earlier work.
Data set [9] has as its system uninfected cells. The experiment in a line: Cytotoxicity (CC50) determined in parallel in uninfected cells (β-actin toxicity). The note with it: HuNoV assay.
Data set [10] concerns MERS Coronavirus strain EMC. In words: microbe, parasite or virus in culture. It counts as cell-based.
Data set [11] deals with Influenza A virus strain California/07/2009. The experiment in a line: Inhibition of in vitro replication of Influenza A virus. The data set is classed as cell-based. The settings on record: for EC50: Influenza A virus strain California/07/2009.
A short description of data set [12]: in vitro. The note with it: human.
In data set [13] the test system is uninfected cells.
Data set [14] deals with norovirus. The settings on record: read-out: EC50 norovirus replication; cited from earlier work.
Setting [15] is: Norovirus, HG23, HuNoV, HG23 NoV replicon cells, read-out: EC50 (effective concentration to inhibit the replication of the virus by 50%).
Setting [16] is: Norovirus, HuNoV, HG23 NoV replicon cells, read-out: EC90 (effective concentration to inhibit the replication of the virus by 90%).
Setting [17] is: Norovirus, HG23, read-out: EC50 (effective concentration to inhibit the replication of the virus by 50%), HuNoV, HG23 NoV replicon cells.
Setting [18] is: HuNoV, HG23 NoV replicon cells, read-out: EC50 (effective concentration to inhibit the replication of the virus by 50%).
[19] abbreviates: HuNoV, HG23 NoV replicon cells, read-out: EC90 (effective concentration to inhibit the replication of the virus by 90%).

Where “and” joins values, the source holds several entries; their conditions need not be identical. Equal entries are not always repeated. Entries after “also recorded” stand apart in the source; their conditions may differ. Where two headings read alike, the source gives them in different places. Where only a bound is given, the exact number is not on record here.

For the compound `C[C@@]1(O)[C@H](O)[C@@H](CO)O[C@H]1n1ccc(N)nc1=O` [2’Cmethyl Cytidine, 2′-C-Methyl-cytidine, reference compound], in data set [1] (uninfected cells), the CC50 was above 25 µM. Moreover, the EC50 was 2630 nM in data set [2] (setting [15]), 300 nM in data set [3] and 2000 nM in [4]. Besides, the EC90 in [2] (setting [16]) amounted to 13.8 µM.

For the compound `C[C@@]1(O)[C@H](O)[C@@H](CO)O[C@H]1c1ccc2c(N)ncnn12` [2′-C-methyl-4-aza-7,9-dideazaadenosine], the EC50 in data set [5] was 1980 nM.

For `C[C@@]1(O)[C@H](O)[C@@H](CO)O[C@H]1c1cc(C(N)=O)c2c(N)ncnn12` [7-carboamido analogue 2], the “improvement in potency relative to the parent compound 1” value in [6] is given as 40 fold.

With `Cc1ncnc2c1ccn2[C@@H]1O[C@H](CO)[C@@H](O)[C@H]1O` [Compound 3], the IC50 is 39 nM in data set [7] and 11 nM in data set [8].

In data set [1] (uninfected cells), `Cc1ccc(-c2ncnc3c2ccn3[C@@H]2O[C@H](CO)[C@@H](O)[C@H]2O)cc1` [Compound 11a, 6-(4-Methylphenyl)-9-β-D-ribofuranosyl-7-deazapurine] gave a CC50 above 100 µM. Also, the EC90 in data set [2] (setting [16]) was above 100 µM.

As for `Cc1ncnc2c1ccn2[C@@H]1O[C@H](CO)[C@@H](O)[C@H]1O` [Compound 11b, 6-Methyl-9-β-D-ribofuranosyl-7-deazapurine], the CC50 in data set [1] (uninfected cells) is 0.53 µM. Further, in data set [2], the “inhibitory activity against human norovirus (in words)” value is recorded as “good activity”. Further, the EC50 in data set [2] (setting [17]) came to 12 nM. Also, the EC90 in [2] (setting [16]) is 0.068 µM.

As for `CC(C)c1ncnc2c1ccn2[C@@H]1O[C@H](CO)[C@@H](O)[C@H]1O` [Compound 11c, 6-Isopropyl-9-β-D-ribofuranosyl-7-deazapurine], the CC50 in [1] (uninfected cells) is above 100 µM. In addition, the “cytotoxicity (in words)” value in [9] is on record as “did not display significant cytotoxicity; also recorded: without significant cytotoxicity”. Further, in data set [2], the “inhibitory activity against human norovirus (in words)” value is listed as “potent activity”. The EC50 in [2] (setting [17]) is 24 nM. Besides, in data set [2] (setting [16]), the EC90 was 2.69 µM.

Regarding `CCc1ncnc2c1ccn2[C@@H]1O[C@H](CO)[C@@H](O)[C@H]1O` [Compound 11d, 6-Ethyl-9-β-D-ribofuranosyl-7-deazapurine], the CC50 in [1] was 10.2 µM; in data set [12] it was above 100 µM. In data set [9], the “cytotoxicity (in words)” value was “did not display significant cytotoxicity”. Also, in data set [10], the “inhibitory activity against MERS Coronavirus (in words)” value is listed as “moderate inhibitory activity”. Moreover, the figures for the EC50 in [10] (Middle East respiratory syndrome-related coronavirus), in data set [2] (setting [17]) and in [11] were 9.2 µM, 23 nM and 420 nM, respectively. Also, the EC90 in data set [2] (setting [16]) was 0.495 µM. Besides, the “inhibitory activity against Influenza A virus (in words)” value in [11] was “moderate inhibitory activity”.

On to `CCCc1ncnc2c1ccn2[C@@H]1O[C@H](CO)[C@@H](O)[C@H]1O` [Compound 11e, 6-Propyl-9-β-D-ribofuranosyl-7-deazapurine], for which, in [1] (uninfected cells), the CC50 is above 100 µM. The “cytotoxicity (in words)” value in data set [9] is on record as “did not display significant cytotoxicity; also recorded: without significant cytotoxicity”. Moreover, the “inhibitory activity against human norovirus (in words)” value in data set [2] is recorded as “potent activity”. Moreover, the EC50 in [2] (setting [17]) is 16 nM. The EC90 in data set [2] (setting [16]) was 19 µM.

Compound `CCCCCc1ncnc2c1ccn2[C@@H]1O[C@H](CO)[C@@H](O)[C@H]1O` [Compound 11f, 6-Pentyl-9-β-D-ribofuranosyl-7-deazapurine] yielded a CC50 in data set [1] (uninfected cells) above 100 µM. Besides, the EC50 in [2] (setting [17]) turned out to be 84 nM. Also, the EC90 in data set [2] (Norovirus, HG23, read-out: EC90 (effective concentration to inhibit the replication of the virus by 90%)) is above 100 µM.

In turn, `CCCCCCc1ncnc2c1ccn2[C@@H]1O[C@H](CO)[C@@H](O)[C@H]1O` [Compound 11g, 6-Hexyl-9-β-D-ribofuranosyl-7-deazapurine] came in with a CC50 in data set [1] (uninfected cells) of 62.3 µM. Further, the EC50 in [2] (setting [15]) was 130 nM. The EC90 in [2] (setting [16]) amounted to 57.6 µM.

`CC(C)Cc1ncnc2c1ccn2[C@@H]1O[C@H](CO)[C@@H](O)[C@H]1O` [Compound 11i, 6-Isobutyl-9-β-D-ribofuranosyl-7-deazapurine]: the CC50 in [1] (uninfected cells) was above 100 µM. In addition, in [2] (setting [15]), the EC50 was 2 nM. The EC90 in data set [2] (setting [16]) is above 100 µM.

Take `OC[C@H]1O[C@@H](n2ccc3c(C4CC4)ncnc32)[C@H](O)[C@@H]1O` [Compound 11j, 6-Cycloproyl-9-β-D-ribofuranosyl-7-deazapurine]: in [2] (setting [18]), the EC50 came out at 205 nM. The EC90 in data set [2] (setting [19]) was above 100 µM. Further, the CC50 in data set [13] was above 100 µM.

`OC[C@H]1O[C@@H](n2ccc3c(C4CCCC4)ncnc32)[C@H](O)[C@@H]1O` [Compound 11k, 6-Cyclopentyl-9-β-D-ribofuranosyl-7-deazapurine] had a CC50 in data set [1] (uninfected cells) above 100 µM. For the same compound, in data set [2] (setting [15]), the EC50 is above 100000 nM. The EC90 in data set [2] (setting [16]) is above 100 µM.

In turn, `OC[C@H]1O[C@@H](n2ccc3c(C4CCCCC4)ncnc32)[C@H](O)[C@@H]1O` [Compound 11l, 6-Cyclohexyl-9-β-D-ribofuranosyl-7-deazapurine] showed a CC50 in data set [1] (uninfected cells) of 42.4 µM. Further, the “cytotoxicity (in words)” value in [9] is given as “did not display significant cytotoxicity; also recorded: without significant cytotoxicity”. In addition, the “inhibitory activity against human norovirus (in words)” value in data set [2] is given as “potent activity”. Besides, the EC50 in data set [2] (setting [18]) and in data set [2] (setting [17]) was 180 nM throughout. Further, the EC90 in data set [2] (setting [16]) turned out to be 7.24 µM.

For the compound `CC(C)c1ccc(-c2ncnc3c2ccn3[C@@H]2O[C@H](CO)[C@@H](O)[C@H]2O)cc1` [Compound 11m, 6-(4-isoproylphenyl)-9-β-D-ribofuranosyl-7-deazapurine], the EC50 in data set [2] (setting [18]) was 2 nM and < 1 nM. The EC90 in data set [2] (setting [19]) was found to be 55 µM. In data set [13], this compound displayed a CC50 above 100 µM.

In data set [1] (uninfected cells), `COc1ccc(-c2ncnc3c2ccn3[C@@H]2O[C@H](CO)[C@@H](O)[C@H]2O)cc1` [Compound 11n, 6-(4-Methoxylphenyl)-9-β-D-ribofuranosyl-7-desazapurine] returned a CC50 above 100 µM. In data set [2] (setting [15]), the EC50 worked out at 94 nM. Also, the EC90 in data set [2] (setting [16]) was above 100 µM.

For `OC[C@H]1O[C@@H](n2ccc3c(-c4ccccc4)ncnc32)[C@H](O)[C@@H]1O` [Compound 11o, 6-Phenyl-9-β-D-ribofuranosyl-7-deazapurine], the CC50 in data set [1] (uninfected cells) was above 100 µM. Besides, the EC50 in data set [2] (setting [15]) is 211 nM. Moreover, the EC90 in [2] (setting [16]) came to 61.9 µM.

As to `CN(C)c1ccc(-c2ncnc3c2ccn3[C@@H]2O[C@H](CO)[C@@H](O)[C@H]2O)cc1` [Compound 11p, 6-(4-(Dimethylamino)phenyl)-9-β-D-ribofuranosyl-7-deazapurine], the CC50 in data set [1] (uninfected cells) is above 100 µM. In [2] (setting [15]), the EC50 was 92400 nM. Further, in data set [2] (setting [16]), the EC90 was above 100 µM.

For `CCc1ccc(-c2ncnc3c2ccn3[C@@H]2O[C@H](CO)[C@@H](O)[C@H]2O)cc1` [Compound 11q, 6-(4-Ethylphenyl)-9-β-D-ribofuranosyl-7-deazapurine], the CC50 in data set [1] (uninfected cells) is above 100 µM. For the same compound, the EC50 in data set [2] (setting [15]) stood at 57800 nM. In addition, the EC90 in data set [2] (setting [16]) is above 100 µM.

With `NC(=O)c1ncn([C@@H]2O[C@H](CO)[C@@H](O)[C@H]2O)n1` [Ribavirin, reference compound], the EC50 was 3600 nM in data set [11] and 43 µM in data set [14]. Besides, the CC50 in [12] is above 1000 µM.

The values above are taken from patent US20230104311A1, “NOVEL 6-SUBSTITUTED 7-DEAZAPURINES AND CORRESPONDING NUCLEOSIDES AS MEDICAMENTS” (KATHOLIEKE UNIVERSITEIT LEUVEN, priority 2020, published 2023).
